Results as given in patent US20230011571A1, “SMALL MOLECULE FURIN INHIBITORS FOR TREATING INFECTIOUS DISEASES” (BP Asset V, Inc., priority 2019, published 2023).

Columns and labels:
Format in all cases: cell-based
Marburg virus (MARV) = test: organism not typed; details: Vero, 72 h, read-out: Percent viral inhibition MARV
[1] = system: Chikungunya virus (CHIKV); test: microbe, parasite or virus in culture; details: Chikungunya virus, Vero, 48 h, read-out: Percent viral inhibition CHKV
dengue virus (DENV) = test: microbe, parasite or virus in culture; details: Dengue virus, Vero, 120 h, read-out: Percent viral inhibition DENY

Structure (SMILES): CN1CCN(c2ncc(Oc3cc(CN4CCC(NC(N)=O)CC4)cc(-c4cc(Cl)cc(Cl)c4)n3)cn2)CC1 [Example 329, 1-(1-((2-(3,5-dichlorophenyl)-6-((2-(4-methylpiperazin-1-yl)pyrimidin-5-yl)oxy)pyridin-4-yl)methyl)piperidin-4-yl)urea]
- inhibition at 1 µM (Marburg virus (MARV)): 42.3%
- inhibition at 1 µM [1]: 22.2%
- inhibition at 1 µM (dengue virus (DENV)): 19.2%

Structure (SMILES): CN1CCN(c2ncc(Oc3cc(CN4CCO[C@H](CO)CC4)cc(-c4cc(Cl)cc(Cl)c4)n3)cn2)CC1 [Example 330, (S)-(4-((2-(3,5-dichlorophenyl)-6-((2-(4-methylpiperazin-1-yl)pyrimidin-5-yl)oxy)pyridin-4-yl)methyl)-1,4-oxazepan-7-yl)methanol]
- inhibition at 1 µM (Marburg virus (MARV)): 58.7%
- inhibition at 1 µM [1]: 24.6%
- inhibition at 1 µM (dengue virus (DENV)): 26.4%

Structure (SMILES): CN1CCN(c2ncc(Oc3cc(CN4CCC(P(C)(C)=O)CC4)cc(-c4cc(Cl)cc(Cl)c4)n3)cn2)CC1 [Example 331, (1-((2-(3,5-dichlorophenyl)-6-((2-(4-methylpiperazin-1-yl)pyrimidin-5-yl)oxy)pyridin-4-yl)methyl)piperidin-4-yl)dimethylphosphineoxide]
- inhibition at 1 µM (Marburg virus (MARV)): 69.3%
- inhibition at 1 µM [1]: 22.6%
- inhibition at 1 µM (dengue virus (DENV)): 56.5%

Structure (SMILES): O=C(O)CC1CCN(Cc2cc(Oc3cnc(N4CCN5CCC4C5)nc3)nc(-c3cc(Cl)cc(Cl)c3)c2)CC1 (stereo not drawn) [Example 334, 2-(1-((2-((2-(1,4-diazabicyclo[3.2.1]octan-4-yl)pyrimidin-5-yl)oxy)-6-(3,5-dichlorophenyl)pyridin-4-yl)methyl)piperidin-4-yl)acetic acid]
- inhibition at 1 µM (Marburg virus (MARV)): 41.4%
- inhibition at 1 µM [1]: 29.6%
- inhibition at 1 µM (dengue virus (DENV)): 20.8%

Structure (SMILES): O=C(O)C1[C@H]2CCN(Cc3cc(Oc4cnc(N5CCN6CCC5C6)nc4)nc(-c4cc(Cl)cc(Cl)c4)c3)CC[C@@H]12 (stereo partly drawn) [Example 337, (1R,7S,8r)-4-((2-((2-(1,4-diazabicyclo[3.2.1]octan-4-yl)pyrimidin-5-yl)oxy)-6-(3,5-dichlorophenyl)pyridin-4-yl)methyl)-4-azabicyclo[5.1.0] octane-8-carboxylic acid]
- inhibition at 1 µM (Marburg virus (MARV)): 37.6%
- inhibition at 1 µM [1]: 15.9%
- inhibition at 1 µM (dengue virus (DENV)): 0%

Structure (SMILES): FC1CCN(Cc2cc(Oc3cnc(N4CCN5CCC4C5)nc3)nc(-c3cc(Cl)cc(Cl)c3)c2)CC1 (stereo not drawn) [Example 338, 4-(5-((6-(3,5-dichlorophenyl)-4-((4-fluoropiperidin-1-yl)methyl)pyridin-2-yl)oxy)pyrimidin-2-yl)-1,4-diazabicyclo[3.2.1]octane]
- inhibition at 1 µM (Marburg virus (MARV)): 12.2%
- inhibition at 1 µM [1]: 19.3%
- inhibition at 1 µM (dengue virus (DENV)): 55.4%

Structure (SMILES): CN1CCN(c2cnc(Oc3cc(CN4CCC(CC(=O)O)CC4)cc(-c4cc(Cl)cc(Cl)c4)n3)cn2)CC1 [Example 339, 2-(1-((2-(3,5-dichlorophenyl)-6-((5-(4-methylpiperazin-1-yl)pyrazin-2-yl)oxy)pyridin-4-yl)methyl)piperidin-4-yl)acetic acid]
- inhibition at 1 µM (Marburg virus (MARV)): 52.1%
- inhibition at 1 µM [1]: 23.6%
- inhibition at 1 µM (dengue virus (DENV)): 0%

Structure (SMILES): CC(CCN1CCN(c2cnc(Oc3cc(CN4CCC(CCO)CC4)cc(-c4cc(Cl)cc(Cl)c4)n3)cn2)CC1)C(=O)O (stereo not drawn) [Example 341, 4-(4-(5-((6-(3,5-dichlorophenyl)-4-((4-(2-hydroxyethyl)piperidin-1-yl)methyl)pyridin-2-yl)oxy)pyrazin-2-yl)piperazin-1-yl)-2-methylbutanoic acid]
- inhibition at 1 µM (Marburg virus (MARV)): 50.5%
- inhibition at 1 µM [1]: 29.2%
- inhibition at 1 µM (dengue virus (DENV)): 31.2%

Structure (SMILES): CC(C)(O)CN1CCN(c2cnc(Oc3cc(CN4CCC(CC(=O)O)CC4)cc(-c4cc(Cl)cc(Cl)c4)n3)cn2)CC1 [Example 343, 2-(1-((2-(3,5-dichlorophenyl)-6-((5-(4-(2-hydroxy-2-methylpropyl)piperazin-1-yl)pyrazin-2-yl)oxy)pyridin-4-yl)methyl)piperidin-4-yl)acetic acid]
- inhibition at 1 µM (Marburg virus (MARV)): 51%
- inhibition at 1 µM [1]: 35.7%
- inhibition at 1 µM (dengue virus (DENV)): 28.6%

Structure (SMILES): O=C(O)CC1CCN(Cc2cc(Oc3ccc(N4CCN5CCC4C5)nn3)nc(-c3cc(Cl)cc(Cl)c3)c2)CC1 (stereo not drawn) [Example 344, 2-(1-((2-((6-(1,4-diazabicyclo[3.2.1]octan-4-yl)pyridazin-3-yl)oxy)-6-(3,5-dichlorophenyl)pyridin-4-yl)methyl)piperidin-4-yl)acetic acid]
- inhibition at 1 µM (Marburg virus (MARV)): 43.5%
- inhibition at 1 µM [1]: 26.6%
- inhibition at 1 µM (dengue virus (DENV)): 77.9%

Structure (SMILES): CCN1CCCN(c2cnc(Oc3cc(CN4CCC(CC(=O)O)CC4)cc(-c4cc(Cl)cc(Cl)c4)n3)cn2)CC1 [Example 345, 2-(1-((2-(3,5-dichlorophenyl)-6-((5-(4-ethyl-1,4-diazepan-1-yl)pyrazin-2-yl)oxy)pyridin-4-yl)methyl)piperidin-4-yl)acetic acid]
- inhibition at 1 µM (Marburg virus (MARV)): 57%
- inhibition at 1 µM [1]: 22.1%
- inhibition at 1 µM (dengue virus (DENV)): 44%

Structure (SMILES): CN1C[C@@H]2C[C@H]1CN2c1cnc(Oc2cc(CN3CCC(CC(=O)O)CC3)cc(-c3cc(Cl)cc(Cl)c3)n2)cn1 [Example 346, 2-(1-((2-(3,5-dichlorophenyl)-6-((5-((1S,4S)-5-methyl-2,5-diazabicyclo[2.2.1]heptan-2-yl)pyrazin-2-yl)oxy)pyridin-4-yl)methyl)piperidin-4-yl)acetic acid]
- inhibition at 1 µM (Marburg virus (MARV)): 56.8%
- inhibition at 1 µM [1]: 9.36%
- inhibition at 1 µM (dengue virus (DENV)): 54.6%

Structure (SMILES): CC(C)N1CCN(c2cnc(Oc3cc(CN4CCC(CC(=O)O)CC4)cc(-c4cc(Cl)cc(Cl)c4)n3)cn2)CC1 [Example 347, 2-(1-((2-(3,5-dichlorophenyl)-6-((5-(4-isopropylpiperazin-1-yl)pyrazin-2-yl)oxy)pyridin-4-yl)methyl)piperidin-4-yl)acetic acid]
- inhibition at 1 µM (Marburg virus (MARV)): 57.7%
- inhibition at 1 µM [1]: 24.9%
- inhibition at 1 µM (dengue virus (DENV)): 56.8%

Structure (SMILES): O=C(O)CC1CCN(Cc2cc(Oc3cnc(N4CCN5CCC4C5)cn3)nc(-c3cc(Cl)cc(Cl)c3)c2)CC1 (stereo not drawn) [Example 348, 2-(1-((2-((5-(1,4-diazabicyclo[3.2.1]octan-4-yl)pyrazin-2-yl)oxy)-6-(3,5-dichlorophenyl)pyridin-4-yl)methyl)piperidin-4-yl)acetic acid]
- inhibition at 1 µM (Marburg virus (MARV)): 46.6%
- inhibition at 1 µM [1]: 35.8%
- inhibition at 1 µM (dengue virus (DENV)): 55.8%

Structure (SMILES): CC(O)CCN1CCN(c2cnc(Oc3cc(CN4CCC(CC(=O)O)CC4)cc(-c4cc(Cl)cc(Cl)c4)n3)cn2)CC1 (stereo not drawn) [Example 349, 2-(1-((2-(3,5-dichlorophenyl)-6-((5-(4-(3-hydroxybutyl)piperazin-1-yl)pyrazin-2-yl)oxy)pyridin-4-yl)methyl)piperidin-4-yl)acetic acid]
- inhibition at 1 µM (Marburg virus (MARV)): 64.5%
- inhibition at 1 µM [1]: 26.2%
- inhibition at 1 µM (dengue virus (DENV)): 57.6%

Structure (SMILES): CN1CCN(c2cnc(Oc3cc(CN4CCC(CCO)CC4)cc(-c4cc(Cl)cc(Cl)c4)n3)cn2)CC1 [Example 350, 2-(1-((2-(3,5-dichlorophenyl)-6-((5-(4-methylpiperazin-1-yl)pyrazin-2-yl)oxy)pyridin-4-yl)methyl)piperidin-4-yl)ethanol]
- inhibition at 1 µM (Marburg virus (MARV)): 29.9%
- inhibition at 1 µM [1]: 0%
- inhibition at 1 µM (dengue virus (DENV)): 22.8%

Structure (SMILES): CC(CC1CCN(Cc2cc(Oc3cnc(N4CCCN(C)CC4)cn3)nc(-c3cc(Cl)cc(Cl)c3)c2)CC1)C(=O)O (stereo not drawn) [Example 351, 3-(1-((2-(3,5-dichlorophenyl)-6-((5-(4-methyl-1,4-diazepan-1-yl)pyrazin-2-yl)oxy)pyridin-4-yl)methyl)piperidin-4-yl)-2-methylpropanoic acid]
- inhibition at 1 µM (Marburg virus (MARV)): 60.4%
- inhibition at 1 µM [1]: 22.7%
- inhibition at 1 µM (dengue virus (DENV)): 42.8%

Structure (SMILES): CN1C2CC1CN(c1cnc(Oc3cc(CN4CCC(CC(=O)O)CC4)cc(-c4cc(Cl)cc(Cl)c4)n3)cn1)C2 [Example 352, 2-(1-((2-(3,5-dichlorophenyl)-6-((5-(6-methyl-3,6-diazabicyclo[3.1.l]heptan-3-yl)pyrazin-2-yl)oxy)pyridin-4-yl)methyl)piperidin-4-yl)acetic acid]
- inhibition at 1 µM (Marburg virus (MARV)): 47.9%
- inhibition at 1 µM [1]: 31%
- inhibition at 1 µM (dengue virus (DENV)): 13.1%

Structure (SMILES): CN1CCN(c2cnc(Oc3cc(CN4CCC(OC5(C(=O)O)CC5)CC4)cc(-c4cc(Cl)cc(Cl)c4)n3)cn2)CC1 [Example 353, 1-((1-((2-(3,5-dichlorophenyl)-6-((5-(4-methylpiperazin-1-yl)pyrazin-2-yl)oxy)pyridin-4-yl)methyl)piperidin-4-yl)oxy)cyclopropanecarboxylic acid]
- inhibition at 1 µM (Marburg virus (MARV)): 35.4%
- inhibition at 1 µM [1]: 16.6%
- inhibition at 1 µM (dengue virus (DENV)): 51.3%

Structure (SMILES): CS(=O)(=O)CCCN1CCN(c2cnc(Oc3cc(CN4CCC(CC(=O)O)CC4)cc(-c4cc(Cl)cc(Cl)c4)n3)cn2)CC1 [Example 354, 2-(1-((2-(3,5-dichlorophenyl)-6-((5-(4-(3-(methylsulfonyl)propyl)piperazin-1-yl)pyrazin-2-yl)oxy)pyridin-4-yl)methyl)piperidin-4-yl)acetic acid]
- inhibition at 1 µM (Marburg virus (MARV)): 45.2%
- inhibition at 1 µM [1]: 17.2%
- inhibition at 1 µM (dengue virus (DENV)): 40.8%

Structure (SMILES): CCN1CCCN(c2ccc(Oc3cc(CN4CCC(CC(=O)O)CC4)cc(-c4cc(Cl)cc(Cl)c4)n3)nn2)CC1 [Example 355, 2-(1-((2-(3,5-dichlorophenyl)-6-((6-(4-ethyl-1,4-diazepan-1-yl)pyridazin-3-yl)oxy)pyridin-4-yl)methyl)piperidin-4-yl)acetic acid]
- inhibition at 1 µM (Marburg virus (MARV)): 52.4%
- inhibition at 1 µM [1]: 22%
- inhibition at 1 µM (dengue virus (DENV)): 30.2%

Structure (SMILES): CN1CCCN(c2ccc(Oc3cc(CN4CCC(CC(=O)O)CC4)cc(-c4cc(Cl)cc(Cl)c4)n3)nn2)CC1 [Example 356, 2-(1-((2-(3,5-dichlorophenyl)-6-((6-(4-methyl-1,4-diazepan-1-yl)pyridazin-3-yl)oxy)pyridin-4-yl)methyl)piperidin-4-yl)acetic acid]
- inhibition at 1 µM (Marburg virus (MARV)): 54.3%
- inhibition at 1 µM [1]: 30.8%
- inhibition at 1 µM (dengue virus (DENV)): 49.3%

Structure (SMILES): CN1C[C@@H]2C[C@H]1CN2c1ccc(Oc2cc(CN3CCC(CC(=O)O)CC3)cc(-c3cc(Cl)cc(Cl)c3)n2)nn1 [Example 357, 2-(1-((2-(3,5-dichlorophenyl)-6-((6-((1S,4S)-5-methyl-2,5-diazabicyclo[2.2.1]heptan-2-yl)pyridazin-3-yl)oxy)pyridin-4-yl)methyl)piperidin-4-yl)acetic acid]
- inhibition at 1 µM (Marburg virus (MARV)): 100%
- inhibition at 1 µM [1]: 38.6%
- inhibition at 1 µM (dengue virus (DENV)): 61.2%
